Data from ChEMBL document CHEMBL1201862, “PubChem BioAssay data set” (2004).
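96-well plates; 48 h exposure; 5 concentrations. Endpoints by linear interpolation between flanking doses. Not reached: highest tested concentration assigned. GI50 = concentration required for 50% inhibition of growth.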 The source made the active and inactive calls. Rule as the data show it: active = GI50 up to about 1.1 µM and inactive = higher.

What was measured:
Experiment in all cases: NCI tumour cell line growth inhibition, 48 h
[1] = tested on: RXF 631
[2] = tested on: ACHN
[3] = tested on: TK-10
[4] = tested on: CAKI-1
[5] = tested on: SF-539
[6] = tested on: SN12C
[7] = tested on: K562
[8] = tested on: OVCAR-4
[9] = tested on: UO-31
[10] = tested on: CCRF-CEM
[11] = tested on: SF-295
[12] = tested on: SK-MEL-2
[13] = tested on: M19-MEL
[14] = tested on: RXF 393
[15] = tested on: OVCAR-3
[16] = tested on: RPMI-8226
[17] = tested on: MOLT-4
[18] = tested on: SK-OV-3
[19] = tested on: A549
[20] = tested on: OVCAR-5
[21] = tested on: A498
[22] = tested on: COLO 205
[23] = tested on: UACC-257
[24] = tested on: NCI-H23
[25] = tested on: Malme-3M
[26] = tested on: U-251
[27] = tested on: DMS-114
[28] = tested on: 786-0
[29] = tested on: M14
[30] = tested on: SK-MEL-5
[31] = tested on: DLD-1
[32] = tested on: EKVX
[33] = tested on: KM12
[34] = tested on: UACC-62
[35] = tested on: HOP-18
[36] = tested on: DMS-273
[37] = tested on: NCI-H522
[38] = tested on: NCI-H226
[39] = tested on: HCC 2998
[40] = tested on: SNB-78
[41] = tested on: IGROV-1
[42] = tested on: LOX IMVI
[43] = tested on: HT-29
[44] = tested on: OVCAR-8
[45] = tested on: SNB-19
[46] = tested on: HOP-62
[47] = tested on: SW-620
[48] = tested on: HL-60
[49] = tested on: HCT-15
[50] = tested on: LXFL 529
[51] = tested on: KM-20L2
[52] = tested on: NCI-H460
[53] = tested on: SR
[54] = tested on: SK-MEL-28
[55] = tested on: HCT-116
[56] = tested on: HOP-92
[57] = tested on: SNB-75
[58] = tested on: SF-268

For CCOC(=O)c1ccc(/N=N\c2ccc(N(CCC#N)CCC#N)cc2C)cc1, the GI50 [1] was > 100 µM (inactive), the GI50 [2] was > 100 µM (inactive) and the GI50 [3] was > 100 µM (inactive). The GI50 [4] was > 100 µM (inactive), the GI50 [5] was 72.9 µM (inactive) and the GI50 [6] was > 100 µM (inactive). For the same molecule, the GI50 [7] was > 100 µM (inactive), the GI50 [8] was > 100 µM (inactive) and the GI50 [9] was > 100 µM (inactive). For the same molecule, the GI50 [10] was > 100 µM (inactive), the GI50 [11] was > 100 µM (inactive) and the GI50 [12] was > 100 µM (inactive). For the same molecule, the GI50 [13] was > 100 µM (inactive), the GI50 [14] was > 100 µM (inactive) and the GI50 [15] was > 100 µM (inactive). For the same molecule, the GI50 [16] was > 100 µM (inactive), the GI50 [17] was > 100 µM (inactive) and the GI50 [18] was > 100 µM (inactive). For the same molecule, the GI50 [19] was > 100 µM (inactive), the GI50 [20] was > 100 µM (inactive) and the GI50 [21] was > 100 µM (inactive). The GI50 [22] was > 100 µM (inactive), the GI50 [23] was > 100 µM (inactive) and the GI50 [24] was 95.1 µM (inactive). The GI50 [25] was > 100 µM (inactive), the GI50 [26] was > 100 µM (inactive) and the GI50 [27] was > 100 µM (inactive). For the same molecule, the GI50 [28] was 35.6 µM (inactive), the GI50 [29] was > 100 µM (inactive) and the GI50 [30] was > 100 µM (inactive). The GI50 [31] was > 100 µM (inactive), the GI50 [32] was > 100 µM (inactive) and the GI50 [33] was > 100 µM (inactive). The GI50 [34] was > 100 µM (inactive), the GI50 [35] was 51.6 µM (inactive) and the GI50 [36] was > 100 µM (inactive). The GI50 [37] was 30.4 µM (inactive), the GI50 [38] was > 100 µM (inactive) and the GI50 [39] was > 100 µM (inactive). The GI50 [40] was > 100 µM (inactive), the GI50 [41] was > 100 µM (inactive) and the GI50 [42] was > 100 µM (inactive). For the same molecule, the GI50 [43] was > 100 µM (inactive), the GI50 [44] was > 100 µM (inactive) and the GI50 [45] was > 100 µM (inactive). For the same molecule, the GI50 [46] was > 100 µM (inactive), the GI50 [47] was > 100 µM (inactive) and the GI50 [48] was > 100 µM (inactive). The GI50 [49] was > 100 µM and the GI50 [50] was 35.9 µM (inactive).
For CC(=O)O[C@H]1CCC(C)=CCC[C@@]2(C)C(CC[C@@H]2[C@@H](C)/C=C/C(C)C)c2ccc(cc2C(=O)O)C1 (some centres not stated), the GI50 [51] was 3.67 µM (inactive), the GI50 [1] was 7.4 µM (inactive) and the GI50 [2] was 3.6 µM (inactive). For the same molecule, the GI50 [3] was 3.45 µM (inactive), the GI50 [7] was 3.21 µM (inactive) and the GI50 [9] was 2.03 µM (inactive). For the same molecule, the GI50 [10] was 3.13 µM (inactive), the GI50 [11] was 2.9 µM (inactive) and the GI50 [13] was 4.18 µM (inactive). For the same molecule, the GI50 [52] was 3.12 µM (inactive), the GI50 [14] was 3.11 µM (inactive) and the GI50 [17] was 1.92 µM (inactive). The GI50 [18] was 3.6 µM (inactive), the GI50 [53] was 2.59 µM (inactive) and the GI50 [20] was 3.28 µM (inactive). The GI50 [54] was 5.05 µM (inactive), the GI50 [21] was 6.35 µM (inactive) and the GI50 [23] was 4.59 µM (inactive). For the same molecule, the GI50 [24] was 2.63 µM (inactive), the GI50 [26] was 2.54 µM (inactive) and the GI50 [27] was 4.49 µM (inactive). For the same molecule, the GI50 [29] was 5.02 µM (inactive), the GI50 [32] was 11 µM (inactive) and the GI50 [33] was 2.21 µM (inactive). The GI50 [34] was 1.95 µM (inactive), the GI50 [36] was 3.84 µM (inactive) and the GI50 [55] was 2.94 µM (inactive). For the same molecule, the GI50 [37] was 2.49 µM (inactive), the GI50 [56] was 2.84 µM (inactive) and the GI50 [40] was 3.33 µM (inactive). The GI50 [41] was 2.96 µM (inactive), the GI50 [43] was 3.93 µM (inactive) and the GI50 [44] was 4.06 µM (inactive). For the same molecule, the GI50 [45] was 3.04 µM (inactive), the GI50 [46] was 2.45 µM (inactive) and the GI50 [48] was 1.73 µM (inactive).
In the case of CCN(CC)CCCNC(=O)C1COc2cc(-c3cc(=O)c4ccccc4o3)ccc2O1 (configuration not stated), the GI50 [51] was 34.8 µM (inactive), the GI50 [1] was 34.4 µM (inactive) and the GI50 [2] was 51.4 µM (inactive). For the same molecule, the GI50 [3] was 42.4 µM (inactive), the GI50 [4] was > 100 µM (inactive) and the GI50 [5] was 19.5 µM (inactive). The GI50 [6] was 45.6 µM (inactive), the GI50 [7] was 36.6 µM (inactive) and the GI50 [8] was 72.6 µM (inactive). For the same molecule, the GI50 [9] was 27.4 µM (inactive), the GI50 [10] was 43.8 µM (inactive) and the GI50 [11] was 96.8 µM (inactive). For the same molecule, the GI50 [13] was 20.9 µM (inactive), the GI50 [52] was > 100 µM (inactive) and the GI50 [14] was 39.8 µM (inactive). For the same molecule, the GI50 [15] was 93.5 µM (inactive), the GI50 [16] was > 100 µM (inactive) and the GI50 [17] was 33.4 µM (inactive). For the same molecule, the GI50 [18] was > 100 µM (inactive), the GI50 [19] was 44.1 µM (inactive) and the GI50 [53] was 19.9 µM (inactive). For the same molecule, the GI50 [20] was 81.7 µM (inactive), the GI50 [54] was 20.6 µM (inactive) and the GI50 [57] was 45.9 µM (inactive). The GI50 [21] was 48.2 µM (inactive), the GI50 [22] was 25.1 µM (inactive) and the GI50 [23] was 21.6 µM (inactive). For the same molecule, the GI50 [24] was > 100 µM (inactive), the GI50 [25] was 20.4 µM (inactive) and the GI50 [26] was 37.8 µM (inactive). The GI50 [27] was 25.4 µM (inactive), the GI50 [28] was 66.8 µM (inactive) and the GI50 [29] was 22.1 µM (inactive). The GI50 [30] was 19.7 µM (inactive), the GI50 [31] was 65.3 µM (inactive) and the GI50 [32] was > 100 µM (inactive). For the same molecule, the GI50 [34] was 45.9 µM (inactive), the GI50 [35] was > 100 µM (inactive) and the GI50 [36] was 65.5 µM (inactive). The GI50 [55] was 37.4 µM (inactive), the GI50 [37] was 33.3 µM (inactive) and the GI50 [58] was 42.9 µM (inactive). For the same molecule, the GI50 [38] was 76 µM (inactive), the GI50 [39] was 42.2 µM (inactive) and the GI50 [56] was > 100 µM (inactive). The GI50 [40] was > 100 µM (inactive), the GI50 [41] was 68.1 µM (inactive) and the GI50 [42] was 23.6 µM (inactive). For the same molecule, the GI50 [43] was 41.7 µM (inactive), the GI50 [44] was 53.7 µM (inactive) and the GI50 [45] was > 100 µM (inactive). The GI50 [46] was > 100 µM (inactive), the GI50 [47] was 48.5 µM (inactive) and the GI50 [48] was 36.9 µM (inactive). For the same molecule, the GI50 [49] was 53 µM and the GI50 [50] was 53 µM (inactive).
